Test results published in PubChem BioAssay AID1918930 (Molecular Pharmacology Branch, DTP, NCI, 2023).

Tested on: 233499-124-R-J3-PDC complex spheroid viability, % test/control
Experiment: Anticancer human tumor 233499-124-R-J3-PDC patient-derived colon adenocarcinoma cell line growth inhibition
Details: for IC50: curve of first compound; for viability, T/C: stronger effect = lower value
From the text: Multicellular complex tumor spheroid response to LSD1 Inhibitor Iadademstat in combination with a variety of drugs and investigational agents in selected tumor cell lines
The current study was undertaken to assess response to LSD1 inhibitors in combination with standard-of-care drugs and investigational agents in solid tumor complex spheroid models as well as in the K-562 leukemia. Complex spheroids include a stromal component modeled by human endothelial cells (HUVEC) and fibroblasts modeled by human mesenchymal stem cells (MSCs). The concentration ranges selected for each drug and investigational agent were based upon clinically achievable concentrations if the clinical Cmax of the agent was known.
Compounds. The drugs and investigational agents used in this study are listed on Table 1. All of the agents used, including staurosporine (NSC755774) and gemcitabine (NSC613327), were obtained from the Developmental Therapeutics Program, NCI. FDA-approved anticancer drugs are available from the NCI at http://dtp.nci.nih.gov/branches/dscb/oncology_drugset_explanation.html. Drugs and investigational agents were >95% pure by proton nuclear magnetic resonance (NMR) and liquid chromatography/mass spectrometry (LC/MS). Stock solutions were prepared at 400x in DMSO, stored at -70 degrees C, and diluted in fresh medium prior to their use. The final concentration of DMSO in cell culture wells never exceeded 0.25% (v/v). The FDA-approved anticancer drug set is available from the Developmental Therapeutics Program at https://dtp.cancer.gov/organization/dscb/obtaining/available_plates.htm. All drugs and investigational agents were tested over a range starting from a high concentration at or near the clinical Cmax and decreasing in half-log increments. If the clinical Cmax for an agent had not been determined, the highest concentration tested was 10 microM.
Cell Lines. The patient-derived cancer cell (PDC) lines: 292921-168-R-J2-PDC, K24384-001-R-PDC, and 521955-158-R2-J5-PDC pancreatic carcinomas, 556581-035-R-J1 ovarian carcinoma, 324938-238-R-J1-PDC, 855422-203-R-J1-PDC and 883617-216-R-J1-PDC urothelial bladder carcinomas, 743489-274-T-PDC renal cell carcinoma, 138582-R-J1 Merkel cell tumor, K60290-347-R-J1 and K57222-313-R-J1-PDC glioblastomas, 653999-131-R-J2-PDC, LG0703-F948-PDC, and 349418-098-R-PDC non-small cell lung carcinomas, 885512-296-R-J2-PDC, 171881-019-R-J1-PDC breast carcinomas and 186277-243-T-J2-PDC and 233499-124-R-J2-PDC colon carcinomas were obtained from the NCI Patient-Derived Models Repository (PDMR, https://pdmr.cancer.gov). The established cell lines NCI/ADR-RES (RRID:CVCL_14520 and OVCAR-5 (RRID:CVCL_1628) ovarian carcinomas, 786-O (RRID:CVCL_1051) and A498 (RRID:CVCL_A498) renal cell carcinoma, NCI-H211 (ATCC, cat. CRL-5824; RRID:CVCL_1529), NCI-H196 (ATCC, cat. CRL-5823, RRID:CVCL_1509), SW 1271 (ATCC, cat. CRL-2177, RRID:CVCL_1716) and NCI-H1876 (ATCC, cat. CRL-5902, RRID:CVCL_1503) small cell lung carcinomas, MDA-MB-231 (RRID:CVCL_0062) and MDA-MB-468 (RRID:CVCL_0419)breast carcinomas (10-12). Pooled donor human umbilical vein endothelial cells (HUVEC, Lonza, cat. CC-2519) and human mesenchymal stem cells (hMSC, Lonza, cat. PT-2501) were purchased from Lonza (Walkersville, MD).
Cell Culture. All cells were maintained in an incubator at 37 degrees C and 5% CO2 with 95% humidity. The PDC lines were cultured according to standard operating procedures established by the NCI PDMR (https://pdmr.cancer.gov). Briefly all PDCs were thawed and cultured in Matrigel-coated flasks prepared with a working solution of 1X Ham's F-12 nutrient mix, without supplementation (Invitrogen, Waltham, MA, cat. 11765054), 100 U/mL penicillin-streptomycin (Invitrogen, cat. 15140122), and 2.5% Matrigel (Corning Inc., Corning, NY, cat. 354248) for the first three passages. […]

[1] = second compound 0.1 µM, first compound 0.000316 µM
[2] = second compound 0.1 µM, first compound 0.001 µM
[3] = second compound 0.1 µM, first compound 0.00316 µM
[4] = second compound 0.1 µM, first compound 0.01 µM
[5] = second compound 0.1 µM, first compound 0.0316 µM
[6] = second compound 0.1 µM, first compound 0.1 µM
[7] = second compound 0.316 µM, first compound 0.000316 µM
[8] = second compound 0.316 µM, first compound 0.001 µM
[9] = second compound 0.316 µM, first compound 0.00316 µM
[10] = second compound 0.316 µM, first compound 0.01 µM
[11] = second compound 0.316 µM, first compound 0.0316 µM
[12] = second compound 0.316 µM, first compound 0.1 µM
[13] = second compound 1 µM, first compound 0.000316 µM
[14] = second compound 1 µM, first compound 0.001 µM
[15] = second compound 1 µM, first compound 0.00316 µM
[16] = second compound 1 µM, first compound 0.01 µM
[17] = second compound 1 µM, first compound 0.0316 µM
[18] = second compound 1 µM, first compound 0.1 µM
[19] = second compound 3.16 µM, first compound 0.000316 µM
[20] = second compound 3.16 µM, first compound 0.001 µM
[21] = second compound 3.16 µM, first compound 0.00316 µM
[22] = second compound 3.16 µM, first compound 0.01 µM
[23] = second compound 3.16 µM, first compound 0.0316 µM
[24] = second compound 3.16 µM, first compound 0.1 µM
[25] = second compound 10 µM, first compound 0.000316 µM
[26] = second compound 10 µM, first compound 0.001 µM
[27] = second compound 10 µM, first compound 0.00316 µM
[28] = second compound 10 µM, first compound 0.01 µM
[29] = second compound 10 µM, first compound 0.0316 µM
[30] = second compound 10 µM, first compound 0.1 µM
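Also: spheroids exposed to agents for one week before readout.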

Row | SMILES | IC50 (second compound 0.1 µM) [nM] | IC50 (second compound 0.316 µM) [nM] | IC50 (second compound 1 µM) [nM] | IC50 (second compound 3.16 µM) [nM] | IC50 (second compound 10 µM) [nM] | viability, T/C [1] [%] | viability, T/C [2] [%] | viability, T/C [3] [%] | viability, T/C [4] [%] | viability, T/C [5] [%] | viability, T/C [6] [%] | viability, T/C [7] [%] | viability, T/C [8] [%] | viability, T/C [9] [%] | viability, T/C [10] [%] | viability, T/C [11] [%] | viability, T/C [12] [%] | viability, T/C [13] [%] | viability, T/C [14] [%] | viability, T/C [15] [%] | also measured
1 | CC(C)CC(NC(=O)C(Cc1ccccc1)NC(=O)c1cnccn1)B(O)O (stereo not given) + NC1CC1c1ccc(-c2cccc(O)c2)cc1 | 0.491 | 0.445 | 0.493 | 0.528 | 0.389 | 80.7 | 0.42 | 0.06 | 0.06 | 0.07 | 0.23 | 71 | 0.32 | 0.06 | 0.23 | 0.05 | 0.21 | 80.7 | 0.91 | 0.05 | viability, T/C [16]: 0.04%; viability, T/C [17]: 0.06%; viability, T/C [18]: 0.2%; viability, T/C [19]: 89.8%; viability, T/C [20]: 0.32%; viability, T/C [21]: 0.08%; viability, T/C [22]: 0.06%; viability, T/C [23]: 0.07%; viability, T/C [24]: 0.23%; viability, T/C [25]: 60.1%; viability, T/C [26]: 3.72%; viability, T/C [27]: 0.8%; viability, T/C [28]: 0.22%; viability, T/C [29]: 0.42%; viability, T/C [30]: 0.34%
2 | CC(C)CC(NC(=O)CNC(=O)c1cc(Cl)ccc1Cl)B1OC(=O)CC(CC(=O)O)(C(=O)O)O1 (stereo not given) + NC1CC1c1ccc(-c2cccc(O)c2)cc1 | 4.93 | 5.3 | 4.23 | 4.65 | 3.64 | 114 | 105 | 80.2 | 1.61 | 0.06 | 0.15 | 113 | 109 | 88.4 | 2.74 | 0.07 | 0.16 | 104 | 95.1 | 66.3 | viability, T/C [16]: 1.28%; viability, T/C [17]: 0.13%; viability, T/C [18]: 0.13%; viability, T/C [19]: 89.6%; viability, T/C [20]: 88.1%; viability, T/C [21]: 73.8%; viability, T/C [22]: 2.88%; viability, T/C [23]: 0.06%; viability, T/C [24]: 0.12%; viability, T/C [25]: 70.4%; viability, T/C [26]: 88.1%; viability, T/C [27]: 56.9%; viability, T/C [28]: 0.89%; viability, T/C [29]: 0.15%; viability, T/C [30]: 0.18%
